Results taken from PubChem BioAssay (NCI).
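GI50 = concentration required for 50% inhibition of growth. TGI: total growth inhibition.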

Assays:
Experiment in all cases: DTP human tumour cell line panel, 384-well format
786-0 renal = tested on: 786-0 renal
A498 renal = tested on: A498 renal
A549 NSCLC = tested on: A549 NSCLC
ACHN renal = tested on: ACHN renal
BT-549 breast = tested on: BT-549 breast
CAKI-1 renal = tested on: CAKI-1 renal
CCRF-CEM leukemia = tested on: CCRF-CEM leukemia
DU-145 prostate = tested on: DU-145 prostate
EKVX NSCLC = tested on: EKVX NSCLC
HCC-2998 colon = tested on: HCC-2998 colon
HCT-116 colon = tested on: HCT-116 colon
HCT-15 colon = tested on: HCT-15 colon
HL-60(TB) leukemia = tested on: HL-60(TB) leukemia
HOP-62 NSCLC = tested on: HOP-62 NSCLC
HOP-92 NSCLC = tested on: HOP-92 NSCLC
HS 578T breast = tested on: HS 578T breast
HT29 colon = tested on: HT29 colon
IGROV1 ovarian = tested on: IGROV1 ovarian
K-562 leukemia = tested on: K-562 leukemia
KM12 colon = tested on: KM12 colon
LOX IMVI melanoma = tested on: LOX IMVI melanoma
M14 melanoma = tested on: M14 melanoma
MALME-3M melanoma = tested on: MALME-3M melanoma
MDA-MB-231 breast = tested on: MDA-MB-231 breast
MDA-MB-435 melanoma = tested on: MDA-MB-435 melanoma
MDA-MB-468 breast = tested on: MDA-MB-468 breast
MOLT-4 leukemia = tested on: MOLT-4 leukemia
NCI-H226 lung = tested on: NCI-H226 lung
NCI-H23 lung = tested on: NCI-H23 lung
NCI-H322M lung = tested on: NCI-H322M lung
NCI-H460 NSCLC = tested on: NCI-H460 NSCLC
NCI-H522 lung = tested on: NCI-H522 lung
NCI/ADR-RES ovarian = tested on: NCI/ADR-RES ovarian
OVCAR-3 ovarian = tested on: OVCAR-3 ovarian
OVCAR-4 ovarian = tested on: OVCAR-4 ovarian
OVCAR-5 ovarian = tested on: OVCAR-5 ovarian
OVCAR-8 ovarian = tested on: OVCAR-8 ovarian
PC-3 prostate = tested on: PC-3 prostate
RPMI-8226 leukemia = tested on: RPMI-8226 leukemia
RXF 393 renal = tested on: RXF 393 renal
SF-268 CNS = tested on: SF-268 CNS
SF-295 CNS = tested on: SF-295 CNS
SF-539 CNS = tested on: SF-539 CNS
SK-MEL-28 melanoma = tested on: SK-MEL-28 melanoma
SK-MEL-5 melanoma = tested on: SK-MEL-5 melanoma
SK-OV-3 ovarian = tested on: SK-OV-3 ovarian
SN12C renal = tested on: SN12C renal
SNB-19 CNS = tested on: SNB-19 CNS
SNB-75 CNS = tested on: SNB-75 CNS
SR leukemia = tested on: SR leukemia
SW-620 colon = tested on: SW-620 colon
T-47D breast = tested on: T-47D breast
TK-10 renal = tested on: TK-10 renal
U251 glioblastoma = tested on: U251 glioblastoma
UACC-257 melanoma = tested on: UACC-257 melanoma
UO-31 renal = tested on: UO-31 renal

SMILES: Nc1cc(C(F)(F)F)c(-c2cc(N3CCOCC3)nc(N3CCOCC3)n2)cn1
- GI50 ([…]-0 renal): 1970 nM
- TGI (786-0 renal): 7000 nM
- GI50 (A498 renal): 387 nM
- TGI (A498 renal): 1870 nM
- GI50 (A549 NSCLC): 360 nM
- TGI (A549 NSCLC): 12400 nM
- GI50 (ACHN renal): 246 nM
- TGI (ACHN renal): 10000 nM
- GI50 (BT-549 breast): 691 nM
- TGI (BT-549 breast): 4610 nM
- GI50 (CAKI-1 renal): 230 nM
- TGI (CAKI-1 renal): 804 nM
- GI50 (CCRF-CEM leukemia): 589 nM
- TGI (CCRF-CEM leukemia): 1880 nM
- GI50 (DU-145 prostate): 1990 nM
- TGI (DU-145 prostate): 13900 nM
- GI50 (EKVX NSCLC): 793 nM
- TGI (EKVX NSCLC): 6280 nM
- GI50 (HCC-2998 colon): 1080 nM
- TGI (HCC-2998 colon): 3370 nM
- GI50 (HCT-116 colon): 852 nM
- TGI (HCT-116 colon): 7530 nM
- GI50 (HCT-15 colon): 394 nM
- TGI (HCT-15 colon): 4110 nM
- GI50 (HL-60(TB) leukemia): 280 nM
- TGI (HL-60(TB) leukemia): 1300 nM
- GI50 (HOP-62 NSCLC): 264 nM
- TGI (HOP-62 NSCLC): 2730 nM
- GI50 (HOP-92 NSCLC): 562 nM
- TGI (HOP-92 NSCLC): 4000 nM
- GI50 (HS 578T breast): 443 nM
- TGI (HS 578T breast): 1750 nM
- GI50 (HT29 colon): 715 nM
- TGI (HT29 colon): > 100000 nM
- GI50 (IGROV1 ovarian): 209 nM
- TGI (IGROV1 ovarian): 572 nM
- GI50 (K-562 leukemia): 459 nM
- TGI (K-562 leukemia): 1830 nM
- GI50 (KM12 colon): 894 nM
- TGI (KM12 colon): 20200 nM
- GI50 (LOX IMVI melanoma): 1180 nM
- TGI (LOX IMVI melanoma): 10700 nM
- GI50 (M14 melanoma): 416 nM
- TGI (M14 melanoma): 8850 nM
- GI50 (MALME-3M melanoma): 272 nM
- TGI (MALME-3M melanoma): 838 nM
- GI50 (MDA-MB-231 breast): 819 nM
- TGI (MDA-MB-231 breast): 44900 nM
- GI50 (MDA-MB-435 melanoma): 223 nM
- TGI (MDA-MB-435 melanoma): 449 nM
- GI50 (MDA-MB-468 breast): 230 nM
- TGI (MDA-MB-468 breast): 618 nM
- GI50 (MOLT-4 leukemia): 333 nM
- TGI (MOLT-4 leukemia): 1330 nM
- GI50 (NCI-H226 lung): 574 nM
- TGI (NCI-H226 lung): 4130 nM
- GI50 (NCI-H23 lung): 310 nM
- TGI (NCI-H23 lung): 2260 nM
- GI50 (NCI-H322M lung): 1620 nM
- TGI (NCI-H322M lung): 7010 nM
- GI50 (NCI-H460 NSCLC): 419 nM
- TGI (NCI-H460 NSCLC): 1670 nM
- GI50 (NCI-H522 lung): 341 nM
- TGI (NCI-H522 lung): 1300 nM
- GI50 (NCI/ADR-RES ovarian): 265 nM
- TGI (NCI/ADR-RES ovarian): 1670 nM
- GI50 (OVCAR-3 ovarian): 546 nM
- TGI (OVCAR-3 ovarian): 2460 nM
- GI50 (OVCAR-4 ovarian): 1260 nM
- TGI (OVCAR-4 ovarian): 6660 nM
- GI50 (OVCAR-5 ovarian): 687 nM
- TGI (OVCAR-5 ovarian): > 100000 nM
- GI50 (OVCAR-8 ovarian): 460 nM
- TGI (OVCAR-8 ovarian): 14000 nM
- GI50 (PC-3 prostate): 462 nM
- TGI (PC-3 prostate): 6930 nM
- GI50 (RPMI-8226 leukemia): 185 nM
- TGI (RPMI-8226 leukemia): 385 nM
- GI50 (RXF 393 renal): 285 nM
- TGI (RXF 393 renal): 1300 nM
- GI50 (SF-268 CNS): 384 nM
- TGI (SF-268 CNS): 4570 nM
- GI50 (SF-295 CNS): 361 nM
- TGI (SF-295 CNS): 1540 nM
- GI50 (SF-539 CNS): 1210 nM
- TGI (SF-539 CNS): 2910 nM
- GI50 (SK-MEL-28 melanoma): 485 nM
- TGI (SK-MEL-28 melanoma): 3340 nM
- GI50 (SK-MEL-5 melanoma): 235 nM
- TGI (SK-MEL-5 melanoma): 762 nM
- GI50 (SK-OV-3 ovarian): 560 nM
- TGI (SK-OV-3 ovarian): 2550 nM
- GI50 (SN12C renal): 1220 nM
- TGI (SN12C renal): 7120 nM
- GI50 (SNB-19 CNS): 2030 nM
- TGI (SNB-19 CNS): 7760 nM
- GI50 (SNB-75 CNS): 287 nM
- TGI (SNB-75 CNS): 1190 nM
- GI50 (SR leukemia): 45.9 nM
- TGI (SR leukemia): 160 nM
- GI50 (SW-620 colon): 358 nM
- TGI (SW-620 colon): > 100000 nM
- GI50 (T-47D breast): 231 nM
- TGI (T-47D breast): 776 nM
- GI50 (TK-10 renal): 572 nM
- TGI (TK-10 renal): 2730 nM
- GI50 (U251 glioblastoma): 1770 nM
- TGI (U251 glioblastoma): 4370 nM
- GI50 (UACC-257 melanoma): 930 nM
- TGI (UACC-257 melanoma): 7270 nM
- GI50 (UO-31 renal): 340 nM
- TGI (UO-31 renal): 3070 nM
